Measured values reported in patent US9580449B2, “Compositions and methods for the production of pyrimidine and pyridine compounds with BTK inhibitory activity” (Merck Patent GmbH, priority 2011, dated 2017).
pIC50: −log10 of the molar value.

target: full-length human BTK (Homo sapiens (Human), UniProt Q06187); test: BTK IC50 enzyme assay (microfluidic off-chip mobility shift kinase assay); assay type: biochemical; conditions: incubated for 90 min. at 27 C; read-out: Time Dependent BTK Enzyme Assay IC50
Procedure, shortened: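 Off-chip microfluidic mobility shift assay on full-length human BTK; substrate-to-product conversion measured by charge/mass separation of phosphorylated peptide after reaction stop.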

Sequence of full-length human BTK (Q06187 whole entry): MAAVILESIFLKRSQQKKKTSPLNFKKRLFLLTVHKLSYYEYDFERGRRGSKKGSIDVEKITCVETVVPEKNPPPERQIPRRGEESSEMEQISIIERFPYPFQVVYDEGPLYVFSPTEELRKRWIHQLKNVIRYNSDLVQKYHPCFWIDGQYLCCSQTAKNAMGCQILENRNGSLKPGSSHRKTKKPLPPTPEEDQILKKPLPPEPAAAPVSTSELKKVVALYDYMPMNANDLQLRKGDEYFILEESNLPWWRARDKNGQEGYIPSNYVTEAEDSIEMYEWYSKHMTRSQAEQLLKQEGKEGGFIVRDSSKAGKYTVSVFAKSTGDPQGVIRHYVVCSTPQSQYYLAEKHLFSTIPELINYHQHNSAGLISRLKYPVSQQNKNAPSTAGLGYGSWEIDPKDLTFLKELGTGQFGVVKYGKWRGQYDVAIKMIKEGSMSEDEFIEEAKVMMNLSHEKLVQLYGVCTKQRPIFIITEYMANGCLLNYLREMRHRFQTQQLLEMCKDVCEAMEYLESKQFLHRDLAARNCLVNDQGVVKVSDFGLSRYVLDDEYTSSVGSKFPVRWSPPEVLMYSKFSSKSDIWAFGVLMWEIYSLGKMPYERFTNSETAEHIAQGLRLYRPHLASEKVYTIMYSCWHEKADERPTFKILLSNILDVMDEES

SMILES	pIC50
C=CC(=O)N1C2CCC1CC(CNc1ncnc(N)c1-c1cnn(Cc3ccccc3)c1)C2 (centres unmarked) [A209, 1-(3-(((6-amino-5-(1-benzyl-1H-pyrazol-4-yl)pyrimidin-4-yl)amino)methyl)-8-azabicyclo[3.2.1]octan-8-yl)prop-2-en-1-one]	> 6.00
C=CC(=O)Nc1cccc(Oc2ncnc(N)c2-c2cnn(Cc3cccc(N(C)C)c3)c2)c1 [A212, N-(3-((6-amino-5-(1-(3-(dimethylamino)benzyl)-1H-pyrazol-4-yl)pyrimidin-4-yl)oxy)phenyl)acrylamide]	> 7.00
CC#CC(=O)N1CC[C@@H](CNc2ncnc(N)c2-c2ccc(Oc3ccccc3)cc2)[C@H](O)C1 [A215, 1-((3S,4S)-4-(((6-amino-5-(4-phenoxyphenyl)pyrimidin-4-yl)amino)methyl)-3-hydroxypiperidin-1-yl)but-2-yn-1-one]	> 7.00
C=CC(=O)N1CCC(CNc2ncnc(N)c2-c2ccc(Oc3ccccc3)cc2)(C(=O)O)CC1 [A216, 1-acryloyl-4-(((6-amino-5-(4-phenoxyphenyl)pyrimidin-4-yl)amino)methyl)piperidine-4-carboxylic acid]	> 7.00
CN(C)C/C=C/C(=O)N1CCC(CNc2ncnc(N)c2-c2ccc(Oc3ccccc3)cc2)(C(=O)O)CC1 [A217, (E)-4-(((6-amino-5-(4-phenoxyphenyl)pyrimidin-4-yl)amino)methyl)-1-(4-(dimethylamino)but-2-enoyl)piperidine-4-carboxylic acid]	> 6.00
Nc1ncnc(NCC2CCN(C(=O)/C=C/CN3CC(F)C3)CC2)c1-c1ccc(Oc2ccccc2)cc1 [A218, (E)-1-(4-(((6-amino-5-(4-phenoxyphenyl)pyrimidin-4-yl)amino)methyl)piperidin-1-yl)-4-(3-fluoroazetidin-1-yl)but-2-en-1-one]	> 6.00
Nc1ncnc(NCC2CCN(C(=O)/C=C/CN3CC(F)(F)C3)CC2)c1-c1ccc(Oc2ccccc2)cc1 [A219, (E)-1-(4-(((6-amino-5-(4-phenoxyphenyl)pyrimidin-4-yl)amino)methyl)piperidin-1-yl)-4-(3,3-difluoroazetidin-1-yl)but-2-en-1-one]	< 6.00
Nc1ncnc(NCC2CCN(C(=O)/C=C/CN3CCCC3)CC2)c1-c1ccc(Oc2ccccc2)cc1 [A220, (E)-1-(4-(((6-amino-5-(4-phenoxyphenyl)pyrimidin-4-yl)amino)methyl)piperidin-1-yl)-4-(pyrrolidin-1-yl)but-2-en-1-one]	> 6.00
C=CC(=O)N1CC2(CC(Oc3ncnc(N)c3-c3ccc(Oc4cccnc4)cc3)C2)C1 [A221, 1-(6-((6-amino-5-(4-(pyridin-3-yloxy)phenyl)pyrimidin-4-yl)oxy)-2-azaspiro[3.3]heptan-2-yl)prop-2-en-1-one]	< 6.00
Nc1ncnc(OC2CC3(C2)CN(C(=O)/C=C/CN2CC(F)C2)C3)c1-c1ccc(Oc2ccccc2)cc1 [A222, (E)-1-(6-((6-amino-5-(4-phenoxyphenyl)pyrimidin-4-yl)oxy)-2-azaspiro[3.3]heptan-2-yl)-4-(3-fluoroazetidin-1-yl)but-2-en-1-one]	> 7.00
Nc1ncnc(OC2CC3(C2)CN(C(=O)/C=C/CN2CC(F)(F)C2)C3)c1-c1ccc(Oc2ccccc2)cc1 [A223, (E)-1-(6-((6-amino-5-(4-phenoxyphenyl)pyrimidin-4-yl)oxy)-2-azaspiro[3.3]heptan-2-yl)-4-(3,3-difluoroazetidin-1-yl)but-2-en-1-one]	> 6.00
CN(C)C/C=C/C(=O)N[C@H]1C[C@@H](Nc2ncnc(N)c2-c2ccc(Oc3ccccc3)cc2)C1 [A224, (E)-N-(1,3-cis-3-((6-amino-5-(4-phenoxyphenyl)pyrimidin-4-yl)amino)cyclobutyl)-4-(dimethylamino)but-2-enamide]	> 7.00
C=CC(=O)N1CCC(F)(CNc2ncnc(N)c2-c2ccc(Oc3ccccc3)cc2)CC1 [A225, 1-(4-(((6-amino-5-(4-phenoxyphenyl)pyrimidin-4-yl)amino)methyl)-4-fluoropiperidin-1-yl)prop-2-en-1-one]	> 7.00
CN(C)C/C=C/C(=O)N1CCC2(CC(Nc3ncnc(N)c3-c3ccc(Oc4ccccc4)cc3)C2)C1 (centres unmarked) [A226, (E)-1-(2-((6-amino-5-(4-phenoxyphenyl)pyrimidin-4-yl)amino)-6-azaspiro[3.4]octan-6-yl)-4-(dimethylamino)but-2-en-1-one]	> 6.00
CN(C)C/C=C/C(=O)N1CCC(F)(CNc2ncnc(N)c2-c2ccc(Oc3ccccc3)cc2)CC1 [A227, (E)-1-(4-(((6-amino-5-(4-phenoxyphenyl)pyrimidin-4-yl)amino)methyl)-4-fluoropiperidin-1-yl)-4-(dimethylamino)but-2-en-1-one]	> 7.00
CN(C)C/C=C/C(=O)N[C@H]1C[C@H](Nc2ncnc(N)c2-c2ccc(Oc3ccccc3)cc2)C1 [A228, (E)-N-(1,3-trans-3-((6-amino-5-(4-phenoxyphenyl)pyrimidin-4-yl)amino)cyclobutyl)-4-(dimethylamino)but-2-enamide]	> 6.00
Nc1ncnc(NCC2(F)CCN(C(=O)CCN3CCCCC3)CC2)c1-c1ccc(Oc2ccccc2)cc1 [A235, 1-(4-(((6-amino-5-(4-phenoxyphenyl)pyrimidin-4-yl)amino)methyl)-4-fluoropiperidin-1-yl)-3-(piperidin-1-yl)propan-1-one]	< 6.00
C=CC(=O)Nc1cccc(-c2c(N)ncnc2Nc2ccc(Oc3ccccc3)cc2)c1 [A241, N-(3-(4-amino-6-((4-phenoxyphenyl)amino)pyrimidin-5-yl)phenyl)acrylamide]	> 7.00
C=CC(=O)Nc1cccc(-c2c(Oc3ccc(Oc4ccccc4)cc3)ccnc2N)c1 [A243, N-(3-(2-amino-4-(4-phenoxyphenoxy)pyridin-3-yl)phenyl)acrylamide]	> 7.00
C=CC(=O)Nc1cccc(Oc2ccnc(N)c2-c2ccc(Oc3ccccc3)cc2)c1 [A244, N-(3-((2-amino-3-(4-phenoxyphenyl)pyridin-4-yl)oxy)phenyl)acrylamide]	> 7.00
CN(C)C/C=C/C(=O)Nc1cccc(-c2c(N)ncnc2Oc2ccc(Oc3ccccc3)cc2)c1 [A248, (E)-N-(3-(4-amino-6-(4-phenoxyphenoxy)pyrimidin-5-yl)phenyl)-4-(dimethylamino)but-2-enamide]	> 7.00
C=CC(=O)Nc1cccc(Oc2ncnc(N)c2-c2ccc(OCc3ccccc3)cc2)c1 [A249, N-(3-((6-amino-5-(4-(benzyloxy)phenyl)pyrimidin-4-yl)oxy)phenyl)acrylamide]	> 7.00
C=CC(=O)Nc1cccc(Oc2ncnc(N)c2-c2ccc(OCc3ccccc3OC)cc2)c1 [A254, N-(3-((6-amino-5-(4-((2-methoxybenzyl)oxy)phenyl)pyrimidin-4-yl)oxy)phenyl)acrylamide]	> 7.00
C=CC(=O)Nc1cccc(Oc2ncnc(N)c2-c2ccc(OCc3ccccc3)c(OC)c2)c1 [A256, N-(3-((6-amino-5-(4-(benzyloxy)-3-methoxyphenyl)pyrimidin-4-yl)oxy)phenyl)acrylamide]	> 7.00
C=CC(=O)Nc1cccc(Oc2ncnc(N)c2-c2ccc(OCc3ccccc3)c(F)c2F)c1 [A257, N-(3-((6-amino-5-(4-(benzyloxy)-2,3-difluorophenyl)pyrimidin-4-yl)oxy)phenyl)acrylamide]	> 7.00
C=CC(=O)Nc1cccc(Oc2ncnc(N)c2-c2ccc(OCc3ccccc3)nc2)c1 [A259, N-(3-((6-amino-5-(6-(benzyloxy)pyridin-3-yl)pyrimidin-4-yl)oxy)phenyl)acrylamide]	> 7.00
